# Source: patent publication EP2322194A2 (Reprise Biopharmaceutics, LLC, priority 2003, dated 2005)
# “And” between values parts separate entries of the source, which are not always exact repeats. Identical values can stand only once. Like-named read-outs stand apart in the source and are kept apart here.
# Tested on: over-hydrated, healthy, non-smoking male and female volunteers
# Assay type: in vivo, human
# Details: for Mean peak urine osmolality: at 2 hours; for Mean nadir urine output: end of 2 hour infusion; for Urine Output / Urine Osmolality: individual subjects
# Experimental: Briefly, an open-label, crossover study with 8 healthy, over-hydrated, non-smoking male and female volunteers, age 18-40. The subjects were dosed initially with 0.5 ng/kg dose, then with the 1.0 ng/kg dose and finally the 2.0 ng/kg dose. Pharmacodynamic and pharmacokinetic parameters were evaluated at each dose level. A washout period of two days (48 hours) was observed between dosing. Eight subjects evaluated in this study, 5 males, and 3 females. […] Each subject remained in the clinic from one day prior to first dosing to one day after last dosing for a total of 7 days. […] At this point over-hydration was discontinued. […] Urine-specific gravity was also measured. […] This same procedure was followed for the 1.0 ng/kg and 2.0 ng/kg infusions. […] Criteria for evaluation in the study included urine output over time, urine osmolality over time, urine-specific gravity over time, and […] osmolality and sodium over time. Statistical analysis on the above criteria was performed. The statistical analysis is descriptive and all statistical hypothesis testing was done for exploratory purposes. […] The second and third estimation used 200 mOsm/kg and 400 mOsm/kg as cut off levels for 'onset' and 'end' of action, respectively. […] The overall duration of action was estimated for each dose group using the nonparametric Kaplan-Meier method. […] Furthermore, the duration of action was presented for each treatment group using the mean, SD, median, minimum and maximum values. The dose-response relationship between duration of action and dose was investigated using an appropriate linear or nonlinear model.
# [1] = 0.5 ng/kg, time 0 min (baseline)
# [2] = 0.5 ng/kg, time -20 min (baseline)
# [3] = 1.0 ng/kg, time 0 min (baseline)
substance,measurement,setting,value
1-desamino-8-D-arginine vasopressin [desmopressin],duration of antidiuretic effect,0.5 ng/kg dose,approximately 180 minutes
same,Mean peak urine osmolality,0.5 ng/kg dose,206.0 mOsm/kg
same,Baseline mean urine osmolality,0.5 ng/kg dose,55.8 mOsm/kg
same,Baseline mean urine output,0.5 ng/kg dose,18.6 mL/min
same,Mean nadir urine output,0.5 ng/kg dose,7.1 mL/min
same,"Urine Osmolality, Mean",[1],57.6 mOsm/kg
same,"Urine Output, Mean",[1],18.4 mL/min
same,"Urine Osmolality, Mean","0.5 ng/kg, time 20 min",73.1 mOsm/kg
same,Urine Output,"0.5 ng/kg, time 20 min",16.7 mL/min (2×) and 16.4 mL/min and 11.8 mL/min
same,"Urine Osmolality, Mean","0.5 ng/kg, time 40 min",108.3 mOsm/kg
same,"Urine Output, Mean","0.5 ng/kg, time 40 min",10.3 mL/min
same,"Urine Osmolality, Mean","0.5 ng/kg, time 60 min",136.1 mOsm/kg
same,"Urine Output, Mean","0.5 ng/kg, time 60 min",9.6 mL/min
same,"Urine Osmolality, Mean","0.5 ng/kg, time 80 min",165.8 mOsm/kg
same,"Urine Osmolality, Mean","0.5 ng/kg, time 100 min",186.3 mOsm/kg
same,"Urine Output, Mean","0.5 ng/kg, time 100 min",7.7 mL/min
same,"Urine Osmolality, Mean","0.5 ng/kg, time 120 min",206.0 mOsm/kg
same,"Urine Output, Mean","0.5 ng/kg, time 120 min",7.1 mL/min
same,"Urine Osmolality, Mean","0.5 ng/kg, time 140 min",188.3 mOsm/kg
same,"Urine Output, Mean","0.5 ng/kg, time 140 min",9.6 mL/min
same,"Urine Osmolality, Mean","0.5 ng/kg, time 160 min",155.8 mOsm/kg
same,"Urine Output, Mean","0.5 ng/kg, time 160 min",9.7 mL/min
same,"Urine Osmolality, Mean","0.5 ng/kg, time 180 min",136.8 mOsm/kg
same,"Urine Output, Mean","0.5 ng/kg, time 180 min",11.1 mL/min
same,"Urine Osmolality, Mean","0.5 ng/kg, time 200 min",157.8 mOsm/kg
same,"Urine Output, Mean","0.5 ng/kg, time 200 min",10.4 mL/min
same,"Urine Osmolality, Mean","0.5 ng/kg, time 220 min",136.5 mOsm/kg
same,"Urine Output, Mean","0.5 ng/kg, time 220 min",10.4 mL/min
same,"Urine Osmolality, Mean","0.5 ng/kg, time 240 min",141.7 mOsm/kg
same,Urine Output,"0.5 ng/kg, time 240 min",10.5 mL/min and 11.4 mL/min and 4.2 mL/min
same,"Urine Osmolality, Mean","0.5 ng/kg, time 260 min",147.5 mOsm/kg
same,"Urine Output, Mean","0.5 ng/kg, time 260 min",9.7 mL/min
same,Urine Osmolality,"0.5 ng/kg, time 260 min",80 mOsm/kg and 215 mOsm/kg
same,"Urine Osmolality, Mean","0.5 ng/kg, time 280 min",169.0 mOsm/kg
same,Urine Osmolality,"0.5 ng/kg, time 280 min",88 mOsm/kg and 250 mOsm/kg
same,"Urine Osmolality, Mean","0.5 ng/kg, time 300 min",193.0 mOsm/kg
same,"Urine Output, Mean","0.5 ng/kg, time 300 min",4.1 mL/min
same,Urine Osmolality,"0.5 ng/kg, time 300 min",193 mOsm/kg
same,Urine Output,"0.5 ng/kg, time 300 min",4.1 mL/min
same,"Urine Osmolality, Mean","0.5 ng/kg, time 320 min",156.0 mOsm/kg
same,"Urine Output, Mean","0.5 ng/kg, time 320 min",5.0 mL/min
same,Urine Osmolality,"0.5 ng/kg, time 320 min",156 mOsm/kg
same,Urine Output,"0.5 ng/kg, time 320 min",5 mL/min
same,"Urine Osmolality, Mean","0.5 ng/kg, time 340 min",133.0 mOsm/kg
same,"Urine Output, Mean","0.5 ng/kg, time 340 min",6.4 mL/min
same,Urine Osmolality,"0.5 ng/kg, time 340 min",133 mOsm/kg
same,Urine Output,"0.5 ng/kg, time 340 min",6.4 mL/min
same,"Urine Osmolality, Mean","0.5 ng/kg, time 360 min",120.0 mOsm/kg
same,"Urine Output, Mean","0.5 ng/kg, time 360 min",7.3 mL/min
same,Urine Osmolality,"0.5 ng/kg, time 360 min",120 mOsm/kg
same,Urine Output,"0.5 ng/kg, time 360 min",7.3 mL/min
same,"Urine Osmolality, Mean",[2],55.8 mOsm/kg
same,"Urine Output, Mean",[2],18.6 mL/min
same,Mean peak urine osmolality,1.0 ng/kg dose,444.7 mOsm/kg
same,Baseline mean urine osmolality,1.0 ng/kg dose,55.8 mOsm/kg
same,Baseline mean urine output,1.0 ng/kg dose,16.6 mL/min
same,Mean nadir urine output,1.0 ng/kg dose,1.3 mL/min
same,"Urine Osmolality, Mean",[3],56.5 mOsm/kg
same,"Urine Output, Mean",[3],16.7 mL/min
same,Urine Output,[3],17.4 mL/min
same,"Urine Osmolality, Mean","1.0 ng/kg, time 20 min",67.1 mOsm/kg
same,Urine Output,"1.0 ng/kg, time 20 min",11.2 mL/min and 10.4 mL/min
same,"Urine Osmolality, Mean","1.0 ng/kg, time 40 min",167.0 mOsm/kg
same,"Urine Output, Mean","1.0 ng/kg, time 40 min",7.0 mL/min
same,Urine Output,"1.0 ng/kg, time 40 min",5.7 mL/min and 7.6 mL/min
same,"Urine Osmolality, Mean","1.0 ng/kg, time 60 min",259.4 mOsm/kg
same,"Urine Output, Mean","1.0 ng/kg, time 60 min",3.7 mL/min
same,Urine Output,"1.0 ng/kg, time 60 min",3.5 mL/min
same,"Urine Osmolality, Mean","1.0 ng/kg, time 80 min",322.8 mOsm/kg
same,"Urine Output, Mean","1.0 ng/kg, time 80 min",2.0 mL/min
same,Urine Output,"1.0 ng/kg, time 80 min",0 mL/min
same,"Urine Osmolality, Mean","1.0 ng/kg, time 100 min",375.5 mOsm/kg
same,"Urine Output, Mean","1.0 ng/kg, time 100 min",2.5 mL/min
same,Urine Output,"1.0 ng/kg, time 100 min",3.7 mL/min
same,"Urine Osmolality, Mean","1.0 ng/kg, time 120 min",444.7 mOsm/kg
same,"Urine Output, Mean","1.0 ng/kg, time 120 min",1.3 mL/min
same,Urine Output,"1.0 ng/kg, time 120 min",0 mL/min
